Data as given in US8853424B2 (Japan Science and Technology Agency, priority 2008, dated 2014).

Legend:
[1] = tested on: Truncated N-terminal huntington 150 Q-EGFP-Neuron 2a cells; assay: Measurement of x-Fold (polyglutamine aggregation inhibitory activity); type: cell-based
Experimental: In the present invention, the polyglutamine aggregation inhibitory activity (x-Fold) can be measured, for example, by the method described in the Example.
The number of the aggregated cells, and the total number of cells were counted by Array Scan V T1 (manufactured by Cellomics, Pittuburg, USA), and the ratio of the aggregated cells to the total number of cells was determined (x-Fold). […]

transglutaminase (TGase) = assay: Measurement of TG (TGase inhibitory activity, monodansyl cadaverine / N,N-dimethylcasein fluorescence, FDSS 3000); type: biochemical
How it was run: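 Compound (1 μL of 10 mM stock) added to 0.1 mL reaction: 100 mM HEPES-NaOH pH 7.5, 1 mM CaCl2, 20 μM monodansyl cadaverine, 0.05 mg/mL N,N-dimethylcasein, 5 μg/mL TGase. Rate of fluorescence change at 340 nm measured; DMSO control set to 100; TG50 is the concentration halving activity.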

[2] = polyglutamine aggregation inhibitory activity, Table 1
[3] = ratio of aggregated cells to total number of cells, compound 20 μM, 20 hr, almost 1 without compound, smaller = stronger inhibition
[4] = TGase activity with compound (10 mM, 1 μL in 0.1 ml enzyme reaction solution), DMSO control taken as 100
[5] = TGase inhibitory activity value, Table 1
[6] = polyglutamine aggregation, Truncated N-terminal huntington 150 Q-EGFP-Neuron 2a cells
[7] = TGase inhibitory activity measurement, unit not given

Row | Compound | x-Fold [1, 2] | x-Fold [1, 3] | TGase activity remaining (% of DMSO control = 100) (transglutaminase (TGase); [4]) | TGase activity remaining (% of DMSO control = 100) (transglutaminase (TGase); [5]) | other results
1 | CCCCB(O)c1ccccc1 [Example 108, normal-butyl phenyl borinic acid] | 1.00 | 1.00 | 111 | 111 | –
2 | OB(c1cc(F)c(F)c(F)c1)c1cc(F)c(F)c(F)c1 [Example 81, bis(3,4,5-trifluorophenyl)borinic acid] | 0.92 | 0.92 | 97 | 97 | –
3 | Cc1ccc(B(OC(=O)C(N)CCCCN)c2ccc(Oc3ccc(B(OC(=O)C(N)CCCCN)c4ccc(C)cc4)cc3)cc2)cc1 (stereo not shown) [Example 450, bis(4,4′-(tolyllysineboryl)phenyl)ether] | – | 0.49 | 53 | – | x-Fold [1, 6]: 0.49; TGase activity remaining (% of DMSO control = 100) (transglutaminase (TGase); [7]): 53
4 | OB(c1ccccc1)c1ccc(B(O)c2ccccc2)c2ccccc12 [Example 135, 1,4-bis(phenylhydroxyboryl)naphthalene] | 1.03 | 1.03 | 99 | 99 | –
5 | NCCOB(c1ccc(F)c(Cl)c1)c1ccc(F)c(Cl)c1 [Example 86, 2-aminoethyl bis(3-chloro-4-fluorophenyl)borinate] | – | 0.99 | 103 | – | x-Fold ([1]; polyglutamine aggregation inhibitory activity, Table 1, listed as 6015): 0.99; TGase activity remaining (% of DMSO control = 100) (transglutaminase (TGase); TGase inhibitory activity value, Table 1, listed as 6015): 103
6 | N#Cc1ccc(B(OCc2ccccn2)c2ccc(C#N)cc2)cc1 [Example 104, 2-pyridylmethyl bis(4-cyanophenyl)borinate] | 1.16 | 1.16 | 94 | 94 | –
7 | COc1ccc(B(OC(=O)C(N)CCN)c2ccc(COCc3ccc(B(OC(=O)C(N)CCN)c4ccc(OC)cc4)cc3)cc2)cc1 (stereo not shown) [Example 415, bis(4,4′-(p-methoxyphenyl-2,4-diaminobutyric acid boryl)benzyl)ether] | – | 0.90 | 130 | – | x-Fold [1, 6]: 0.90; TGase activity remaining (% of DMSO control = 100) (transglutaminase (TGase); [7]): 130
8 | NCC(N)C(=O)OB(c1ccccc1)c1ccccc1 (stereo not shown) [Example 174, diphenyl(2,3-diaminopropionate-O,N)borane] | – | 0.99 | 103 | – | x-Fold ([1]; polyglutamine aggregation inhibitory activity, Table 1, listed as 2031-4): 0.99; TGase activity remaining (% of DMSO control = 100) (transglutaminase (TGase); TGase inhibitory activity value, Table 1, listed as 2031-4): 103
9 | CCCCNCCOB(c1cc(Cl)ccc1C)c1cc(Cl)ccc1C [Example 246, di(5-chloro-2-methylphenyl) 2-butylaminoethylborinate] | – | 0.67 | 94 | – | –
10 | Cc1ccc(B(OC(=O)C(N)CCN)c2ccc(C)c(Cl)c2)cc1Cl (stereo not shown) [Example 293, di(3-chloro-4-methylphenyl)(2,4-diaminobutyrate-O,N)borane] | 0.91 | 0.91 | 116 | 116 | –
11 | di(3-chloro-6-methyl-phenyl)(argininate-O,N)borane [Example 156] | 1.08 | 1.08 | 91 | 91 | –
12 | Cc1ccc(B(O)c2ccc(Oc3ccc(B(O)c4ccc(C)c(Cl)c4)cc3)cc2)cc1Cl [Example 201, 4,4′-di((3-chloro-4-methylphenyl 2-hydroxyboryl)phenyl)ether] | – | 0.57 | 99 | – | –
13 | Cc1ccc(B(OC(CN)c2ccccc2)c2ccc(C)c(Cl)c2)cc1Cl (stereo not shown) [Example 209, di(3-chloro-4-methylphenyl)1-phenyl 2-aminoethylborinate] | 0.98 | 0.98 | 1 | 1 | –
14 | NCCOB(c1ccccc1)c1ccc(COCCOc2ccc(B(OCCN)c3ccccc3)cc2)cc1 [Example 380, (4-(phenylaminoethoxyboryl)phenoxyethyl)(4-(phenylaminoethoxyboryl)benzyl)ether] | 0.67 | 0.67 | 92 | 92 | –
15 | OB(c1ccc(Cl)c(F)c1)c1ccc(Cl)c(F)c1 [Example 231, di(3-fluoro-4-chlorophenyl)borinic acid] | – | 1.01 | 94 | – | x-Fold ([1]; polyglutamine aggregation inhibitory activity, Table 1, listed as 4140): 1.01; TGase activity remaining (% of DMSO control = 100) (transglutaminase (TGase); TGase inhibitory activity value, Table 1, listed as 4140): 94
16 | NCC(OB(c1ccc(F)c(F)c1)c1ccc(F)c(F)c1)c1ccccc1 (stereo not shown) [Example 88, 2-amino-1-phenylethyl bis(3,4-difluorophenyl)borinate] | 0.83 | 0.83 | 82 | 82 | –
17 | COc1ccc(C(OB(c2ccc(C)c(Cl)c2)c2ccc(C)c(Cl)c2)c2ccccn2)cc1 (stereo not shown) [Example 127, bis(3-chloro-4-methylphenyl) 2-pyridyl-4-methoxyphenylmethoxyborane] | 0.70 | 0.70 | 109 | 109 | –
18 | O=C(OB(c1ccc(C(F)(F)F)cc1)c1ccc(C(F)(F)F)cc1)c1ccccn1 [Example 284, di(4-trifluoromethylphenyl) (picolinate-O,N)borane] | 1.03 | 1.03 | 89 | 89 | –
19 | CCCCC(N)C(=O)OB(c1ccccc1)c1ccccc1 (stereo not shown) [Example 226, diphenyl(2-aminohexanecarboxylate-O,N)borane] | 0.94 | 0.94 | 97 | 97 | –
20 | bis((4,4′-phenyldimethylaminoethoxyboryl)benzyloxybenzyl)dimethylamino-ethoxyborane [Example 191] | 1.04 | 1.04 | 85 | 85 | –
21 | CN(C)CCOB(c1ccc(C(F)(F)F)cc1)c1ccc(C(F)(F)F)cc1 [Example 69, 2-dimethylaminoethyl bis(4-trifluoromethylphenyl)borinate] | – | 1.02 | 76 | – | x-Fold ([1]; polyglutamine aggregation inhibitory activity, Table 1, listed as 5034): 1.02; TGase activity remaining (% of DMSO control = 100) (transglutaminase (TGase); TGase inhibitory activity value, Table 1, listed as 5034): 76
22 | NC(=O)CC[C@H](N)C(=O)OB(c1ccc(Cl)c(F)c1)c1ccc(Cl)c(F)c1 [Example 96, di(3-fluoro-4-chlorophenyl)(glutaminate-O,N)borane] | 0.86 | 0.86 | 124 | 124 | –
23 | Cc1ccc(B(O)c2ccc(Oc3ccc(B(O)c4ccc(C)c(Cl)c4)cc3)cc2)cc1Cl [Example 367, 4,4′-bis(3-chloro-4-methyl-phenylhydroxyboryl)diphenylether] | 0.73 | 0.73 | 113 | 113 | –
24 | di(3-chloro-4-methylphenyl)(2,6-diaminopimelinate-O,N)borane [Example 286] | 0.93 | 0.93 | 104 | 104 | –
25 | OB(c1ccc(F)cc1)c1ccc(COCc2ccc(B(O)c3ccc(F)cc3)cc2)cc1 [Example 142, bis(4-fluorophenylhydroxyboryl 4-benzyl)ether] | 0.24 | 0.24 | 88 | 88 | –
26 | NC(COB(c1ccccc1)c1ccc(COCc2ccc(B(OCC(N)Cc3ccccc3)c3ccccc3)cc2)cc1)Cc1ccccc1 (stereo not shown) [Example 205, bis(4,4′-(phenyl 2-amino-2-benzylethoxyboryl)benzyl)ether] | 0.80 | 0.80 | 47 | 47 | –
27 | CSCCC(N)C(=O)OB(c1ccccc1)c1ccccc1 (stereo not shown) [Example 194, diphenyl(methionate-O,N)borane] | 1.03 | 1.03 | 106 | 106 | –
28 | Cc1ccc(B(O)c2ccc(Oc3ccc(B(O)c4ccc(C)cc4)cc3)cc2)cc1 [Example 365, 4,4′-(4-methylphenylhydroxyboryl)diphenylether] | 0.91 | 0.91 | 118 | 118 | –
29 | Cc1ccc(B(OCCN)c2ccc(B(OCCN)c3ccc(C)c(Cl)c3)cc2)cc1Cl [Example 128, 1,4-bis(3-chloro-4-methylphenyl-2-aminoethoxyboryl)benzene] | 0.93 | 0.93 | 143 | 143 | –
